{
  "source": "patent US20240398768A1",
  "about": "“METHODS OF TREATING SOLID TUMOR USING HETEROAROMATIC MACROCYCLIC ETHER COMPOUNDS” (Nuvalent, Inc., priority 2021, published 2024)",
  "key": {"CYP2B6 [1]": {"target": "T1, CYP2B6 (Homo sapiens, UniProt P20813)", "T1 sequence (P20813 1-491)": "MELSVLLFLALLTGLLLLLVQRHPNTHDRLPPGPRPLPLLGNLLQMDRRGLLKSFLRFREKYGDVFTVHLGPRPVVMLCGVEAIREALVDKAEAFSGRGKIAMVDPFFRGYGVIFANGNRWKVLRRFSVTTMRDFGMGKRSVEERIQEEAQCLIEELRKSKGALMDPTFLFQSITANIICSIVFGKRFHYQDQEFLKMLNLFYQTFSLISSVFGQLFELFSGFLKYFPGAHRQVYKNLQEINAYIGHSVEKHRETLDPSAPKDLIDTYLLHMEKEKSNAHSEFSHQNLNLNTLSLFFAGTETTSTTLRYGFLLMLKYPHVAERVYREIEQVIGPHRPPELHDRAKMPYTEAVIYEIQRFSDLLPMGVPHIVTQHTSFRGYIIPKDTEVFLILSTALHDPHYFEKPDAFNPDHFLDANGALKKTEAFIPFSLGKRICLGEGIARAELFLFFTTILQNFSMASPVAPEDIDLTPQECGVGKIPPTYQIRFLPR", "test": "CYP inhibition", "type": "in vitro ADME"}, "CYP2B6 [2]": {"target": "T1, CYP2B6", "test": "CYP substrate assessment", "type": "in vitro ADME"}, "CYP2C19": {"target": "CYP2C19 (Homo sapiens, UniProt P33261)", "sequence (P33261 whole entry)": "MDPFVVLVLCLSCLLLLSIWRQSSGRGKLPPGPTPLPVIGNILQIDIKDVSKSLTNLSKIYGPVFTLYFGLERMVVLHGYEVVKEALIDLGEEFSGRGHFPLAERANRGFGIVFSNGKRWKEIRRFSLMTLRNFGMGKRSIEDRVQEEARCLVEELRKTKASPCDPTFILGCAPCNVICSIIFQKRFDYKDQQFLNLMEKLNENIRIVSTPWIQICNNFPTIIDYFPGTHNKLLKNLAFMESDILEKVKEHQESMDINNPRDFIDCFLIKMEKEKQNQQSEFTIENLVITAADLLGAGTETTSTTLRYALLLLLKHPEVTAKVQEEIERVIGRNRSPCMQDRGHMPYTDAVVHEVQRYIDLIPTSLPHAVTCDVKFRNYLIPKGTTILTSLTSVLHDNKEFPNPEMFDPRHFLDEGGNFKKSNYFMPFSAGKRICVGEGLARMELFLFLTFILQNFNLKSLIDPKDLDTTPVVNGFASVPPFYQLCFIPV", "test": "CYP substrate assessment", "type": "in vitro ADME"}, "CYP2D6": {"target": "CYP2D6 (Homo sapiens, UniProt P10635)", "sequence (P10635 whole entry)": "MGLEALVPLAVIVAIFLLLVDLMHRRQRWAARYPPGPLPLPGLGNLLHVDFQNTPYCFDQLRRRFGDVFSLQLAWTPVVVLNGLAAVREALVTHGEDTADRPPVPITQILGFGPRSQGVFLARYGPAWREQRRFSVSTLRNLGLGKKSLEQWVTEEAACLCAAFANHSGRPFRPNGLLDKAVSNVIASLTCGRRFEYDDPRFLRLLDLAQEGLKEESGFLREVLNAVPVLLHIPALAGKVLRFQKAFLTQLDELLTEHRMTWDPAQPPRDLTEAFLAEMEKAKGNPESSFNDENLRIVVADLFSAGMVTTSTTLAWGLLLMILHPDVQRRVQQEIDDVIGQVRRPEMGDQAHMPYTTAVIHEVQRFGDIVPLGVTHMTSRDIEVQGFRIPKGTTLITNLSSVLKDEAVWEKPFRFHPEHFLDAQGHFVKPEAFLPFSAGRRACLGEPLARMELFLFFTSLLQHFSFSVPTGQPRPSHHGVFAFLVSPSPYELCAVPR", "test": "CYP substrate assessment", "type": "in vitro ADME"}, "CYP3A4": {"system": "CYP3A4", "test": "CYP induction", "type": "in vitro ADME"}, "[3]": {"system": "advanced ROS1-positive NSCLC and other advanced ROS1-positive solid tumors", "test": "Phase 1/2 clinical study: antitumor activity", "type": "in vivo, human", "conditions": "for tumor change by RECIST 1.1: patient"}, "[4]": {"conditions": "Prior Lorlatinib and/or Repotrectinib n = 18"}, "[5]": {"conditions": "ROS1 G2032R Resistance Mutation n = 9"}, "[6]": {"conditions": "≥2 Prior ROS1 TKI and ≥1 Chemotherapy n = 17"}},
  "note": "Marks after values point to notes of the source that are not given here.",
  "data": [
    {"compound": "CCn1ncc2c1-c1cnc(N)c(c1)O[C@H](C)c1cc(F)ccc1-c1nn(C)nc1C2", "note": "[Compound 1, (19R)-3-ethyl-16-fluoro-10,19-dimethyl-20-oxa-3,4,9,10,11,23-hexaazapentacyclo [19.3.1.0^2,^6.0^8,^12.0^13,^18]pentacosa-1 (24),2 (6),4,8,11,13,15,17,21 (25),22-decaen-22-amine]", "values": [
      {"measurement": "IC50", "setting": "CYP2B6 [1]", "result": "> 100", "unit": "µM"},
      {"measurement": "substrate for CYP2B6", "setting": "CYP2B6 [2]", "result": "not considered a substrate"},
      {"measurement": "substrate for CYP2C19", "setting": "CYP2C19", "result": "not considered a substrate"},
      {"measurement": "substrate for CYP2D6", "setting": "CYP2D6", "result": "not considered a substrate"},
      {"measurement": "inducer of CYP3A4", "setting": "CYP3A4", "result": "potential inducer"},
      {"measurement": "Best Response NE, patients", "setting": "[3]; All Response-Evaluable n = 21", "result": "19^c"},
      {"measurement": "Best Response PD, patients", "setting": "[3]; All Response-Evaluable n = 21", "result": 2},
      {"measurement": "Best Response PR, patients", "setting": "[3]; All Response-Evaluable n = 21", "result": "10^a"},
      {"measurement": "Best Response SD, patients", "setting": "[3]; All Response-Evaluable n = 21", "result": 8},
      {"measurement": "ORR (RESIST 1.1)", "setting": "[3]; All Response-Evaluable n = 21", "result": 48, "unit": "%"},
      {"measurement": "ORR (RESIST 1.1), number of patients", "setting": "[3]; All Response-Evaluable n = 21", "result": 10},
      {"measurement": "Best Response NE, patients", "setting": "[3]; CNS Disease at Baseline n = 11", "result": 0},
      {"measurement": "Best Response PD, patients", "setting": "[3]; CNS Disease at Baseline n = 11", "result": 1},
      {"measurement": "Best Response PR, patients", "setting": "[3]; CNS Disease at Baseline n = 11", "result": 8, "unit": "a"},
      {"measurement": "Best Response SD, patients", "setting": "[3]; CNS Disease at Baseline n = 11", "result": 2},
      {"measurement": "ORR (RESIST 1.1)", "setting": "[3]; CNS Disease at Baseline n = 11", "result": 73, "unit": "%"},
      {"measurement": "ORR (RESIST 1.1), number of patients", "setting": "[3]; CNS Disease at Baseline n = 11", "result": 8},
      {"measurement": "tumor change (further disease regression)", "setting": "[3]; EZR-ROS1 G2032R patient, 50 mg, at 16 weeks", "result": "−58", "unit": "%"},
      {"measurement": "Best Response NE, patients", "setting": "[3]; [4]", "result": 1, "unit": "c"},
      {"measurement": "Best Response PD, patients", "setting": "[3]; [4]", "result": 1},
      {"measurement": "Best Response PR, patients", "setting": "[3]; [4]", "result": 9, "unit": "a"},
      {"measurement": "Best Response SD, patients", "setting": "[3]; [4]", "result": 7},
      {"measurement": "ORR (RESIST 1.1)", "setting": "[3]; [4]", "result": 50, "unit": "%"},
      {"measurement": "ORR (RESIST 1.1), number of patients", "setting": "[3]; [4]", "result": 9},
      {"measurement": "Best Response NE, patients", "setting": "[3]; [5]", "result": 0},
      {"measurement": "Best Response PD, patients", "setting": "[3]; [5]", "result": 0},
      {"measurement": "Best Response PR, patients", "setting": "[3]; [5]", "result": "7^b"},
      {"measurement": "Best Response SD, patients", "setting": "[3]; [5]", "result": 2},
      {"measurement": "ORR (RESIST 1.1)", "setting": "[3]; [5]", "result": 78, "unit": "%"},
      {"measurement": "ORR (RESIST 1.1), number of patients", "setting": "[3]; [5]", "result": 7},
      {"measurement": "confirmed partial responses (PR)", "setting": "[3]; among 12 efficacy-evaluable patients with ROS1+ NSCLC, 25-75 mg QD", "result": 6},
      {"measurement": "median time to response", "setting": "[3]; data as of Sep. 13, 2022", "result": "about 3.6 weeks"},
      {"measurement": "response-evaluable patients continuing treatment", "setting": "[3]; data as of Sep. 13, 2022", "result": 76, "unit": "%"},
      {"measurement": "tumor change, ongoing PR pending confirmation", "setting": "[3]; one patient with ROS1 D2033N", "result": "−40", "unit": "%"},
      {"measurement": "patients with tumor shrinkage", "setting": "[3]; patient subgroup with known ROS1 G2032R resistance mutation", "result": 100, "unit": "%"},
      {"measurement": "ORR", "setting": "[3]; patient subgroup with known ROS1 G2032R resistance mutation, data as of Sep. 13, 2022", "result": 78, "unit": "%"},
      {"measurement": "tumor change by RECIST 1.1", "setting": "[3]; CD74-ROS1 G2032R, 25 mg daily, after 4 weeks", "result": "−31", "unit": "%"},
      {"measurement": "tumor change by RECIST 1.1", "setting": "[3]; CD74-ROS1 G2032R, escalated to 75 mg daily, over 5 months, confirmed PR", "result": "−60", "unit": "%"},
      {"measurement": "tumor change by RECIST 1.1", "setting": "[3]; EZR-ROS1, 25 mg daily, over 7 months", "result": "−48", "unit": "%"},
      {"measurement": "tumor change by RECIST 1.1", "setting": "[3]; EZR-ROS1, no ROS1 resistance mutations, 25 mg daily, week 4", "result": "−33", "unit": "%"},
      {"measurement": "tumor change by RECIST 1.1", "setting": "[3]; EZR-ROS1 G2032R, 50 mg daily, approximately 5 months, confirmed PR", "result": "−58", "unit": "%"},
      {"measurement": "tumor change by RECIST 1.1", "setting": "[3]; EZR-ROS1 G2032R, 50 mg daily, week 4", "result": "−38", "unit": "%"},
      {"measurement": "intracranial PR (patients)", "setting": "[3]; patients with measurable (>10 mm) CNS metastases", "result": "3/3"},
      {"measurement": "median duration of treatment", "setting": "[3]; response-evaluable patients with NSCLC, data as of Sep. 13, 2022", "result": "about 3.6 months"},
      {"measurement": "ORR", "setting": "[3]; response-evaluable patients with any CNS disease, data as of Sep. 13, 2022", "result": 73, "unit": "%"},
      {"measurement": "Best Response NE, patients", "setting": "[3]; [6]", "result": 1, "unit": "c"},
      {"measurement": "Best Response PD, patients", "setting": "[3]; [6]", "result": 1},
      {"measurement": "Best Response PR, patients", "setting": "[3]; [6]", "result": 9, "unit": "a"},
      {"measurement": "Best Response SD, patients", "setting": "[3]; [6]", "result": 6},
      {"measurement": "ORR (RESIST 1.1)", "setting": "[3]; [6]", "result": 53, "unit": "%"},
      {"measurement": "ORR (RESIST 1.1), number of patients", "setting": "[3]; [6]", "result": 9}
    ]}
  ]
}
